In ChEMBL document CHEMBL4431352, “Structure-activity relationship of Garcinia xanthones analogues: Potent Hsp90 inhibitors with cytotoxicity and antiangiogenesis activity” (Bioorg Med Chem, 2016):

Target: Heat shock protein HSP 90-alpha (Homo sapiens, UniProt P07900)
Assay: Inhibition of 6x-His tagged human recombinant full length Hsp90alpha ATPase preincubated for 0.5 hrs followed by ATP addition measured after 30 mins by HTRF assay

| Structure (SMILES) | IC50 [µM] |
| --- | --- |
| C/C(=C\CC12OCC3CC(C1=O)C1OC14C(=O)c1c(O)cccc1OC324)CC=O (configuration not stated) | 36.6 |
| CC(C)=CCC12OC(C)(C)C3CC(C=C4C(=O)c5ccccc5OC431)C2=O (configuration not stated) | 23.9 |
| CC(=O)Oc1cccc2c1C(=O)C1=CC3CC4C(C)(C)OC(CC=C(C)C)(C3=O)C14O2 (configuration not stated) | 42.4 |
| CC(C)=CCC12OCC3CC(C=C4C(=O)c5ccccc5OC431)C2=O (configuration not stated) | 35.2 |
| CC(C)=CCC12OCC3CC(C=C4C(=O)c5c(O)cccc5OC431)C2=O (configuration not stated) | 14.3 |
| C=CCC12OCC3CC(C=C4C(=O)c5ccccc5OC431)C2=O (configuration not stated) | 28 |
| COc1cccc2c1C(=O)C1=CC3CC4COC(CC=C(C)C)(C3=O)C14O2 (configuration not stated) | 54.7 |

Continued, values first:

| IC50 [µM] | Structure (SMILES) |
| --- | --- |
| 67.1 | CC(C)=CCC12OC(C)(C)C3CC(C=C4C(=O)c5c(cccc5OS(C)(=O)=O)OC431)C2=O (configuration not stated) |
| 76.8 | COc1cccc2c1C(=O)C1=CC3CC4C(C)(C)OC(CC=C(C)C)(C3=O)C14O2 (configuration not stated) |
| 15.3 | C/C(=C\CC12OC(C)(C)C3CC(C=C4C(=O)c5c(O)cccc5OC431)C2=O)CCl (configuration not stated) |
| 89.8 | CCOC(=O)COc1cccc2c1C(=O)C1=CC3CC4C(C)(C)OC(CC=C(C)C)(C3=O)C14O2 (configuration not stated) |
| > 100 | CC(C)=CCC12OC(C)(C)C3CC(C=C4C(=O)c5c(OCC(=O)O)cccc5OC431)C2=O (configuration not stated) |
